Among the data in US5225607A, “Insecticidal ethers” (Imperial Chemical Industries PLC, priority 1985, dated 1993) are mortality and pest or weed control values, retold here.

A value given as a limit tells only on which side of the number the result lay.

Holding throughout (format): in vivo
The test system of one experiment is Myzus persicae. In words: Insecticidal test, Myzus persicae (aphids), contact. Particulars: 72 h, Chinese Cabbage leaf, 3 days, read-out: grading of mortality, MP. The method, boiled down:
(§1)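 Acetone solution diluted in water + 0.01% wetting agent; 500/250/100 ppm. Treat pests and/or host plant/food medium. Read mortality/knockdown day 1–3. Grades: A 80–100% (S. exigua 70–100%), B 50–79% (50–69%), C <50%.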

The test system of experiment [1] is Musca domestica. In words: Knockdown test, Musca domestica (houseflies - adults). The note with it: cotton wool/sugar, 4 hours, read-out: grading of knockdown, MD/KD. An outline of the steps: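 Knockdown scores were banded: A 80–100%, B 50–79%, C <50%. Test preparations of 500, 250 or 100 ppm compound were made in acetone, then diluted with water containing 0.01% Lissapol NX, and applied to Musca domestica adults.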

A further experiment deals with Blattella germanica. In words: Insecticidal test, Blattella germanica (cockroach nymphs), residual. Particulars: 72 h, plastic pot, 3 days, read-out: grading of mortality, BG. The method, boiled down:
as §1

The test system of the next experiment is Tetranychus urticae. In words: Insecticidal/acaricidal test, Tetranychus urticae (spider mites - adult), contact. Particulars: 72 h, French bean leaf, 3 days, read-out: grading of mortality, TU. An outline of the steps:
as §1

In a further experiment the test system is Spodoptera exigua. In words: Insecticidal test, Spodoptera exigua (lesser armyworm), residual. The note with it: 72 h, cotton leaf, 3 days, read-out: grading of mortality, SE. The protocol: The activity of the Product was determined using a variety of insect and acarine pests. The Product was used in the form of liquid preparations containing 500, 250 or 100 parts per million (ppm) by weight of the Product. The preparations were made by dissolving the Product in acetone and diluting the solutions with water containing 0.01% by weight of a wetting agent sold under the trade name "LISSAPOL" NX until the liquid preparations contained the required concentratio of the Product. "Lissapol" is a Registered Trade Mark.
The test procedure adopted with regard to each pest was basically the same and comprised supporting a number of the pests on a medium which was usually a host plant or a foodstuff on which the pests feed, and treating either or both the pests and the medium with the preparations. The mortality of the pests was then assessed at periods usually varying from one to three days after the treatment.
The results of the tests are given in Table IV for each of the Products, at the rate in parts per million given in the second column as a grading of mortality designated as A, B or C wherein A indicates 80-100% mortality or knockdown (70-100% in the case of Spodoptera exigua), B indicates 50-79% mortality or knockdown (50-69% in the case of Spodoptera exigua) and C indicates less than 50% mortality or knockdown.
In Table IV the pest organism used is designated by a letter code and the pest species, the support medium or food, and the type and duration of test is given in Table III.

Experiment [2] relates to Musca domestica. In words: Insecticidal test, Musca domestica (houseflies - adults), contact. The note with it: 24 h, cotton wool/sugar, 1 day, read-out: grading of mortality, MD. The method, boiled down:
as §1

For a further experiment, the system named is Heliothis virescens. In words: whole plant or invertebrate. The note with it: in Gossypium hirsutum, 72 h, read-out: grading of mortality, HV. An outline of the steps: as §1
The subject of the next experiment is Nilaparvata lugens. In words: Insecticidal test, Nilaparvata lugens (brown planthopper), contact. Particulars: 72 h, Cabbage leaf, 3 days, read-out: grading of mortality, NL. An outline of the steps: as §1
The next experiment relates to Diabrotica balteata. In words: Insecticidal test, Diabrotica balteata (rootworm larvae), residual. The note with it: 72 h, filter paper/maize seed, 3 days, read-out: grading of mortality, DB. An outline of the steps: as §1

For the compound `CCOc1ccc(C(COCc2cccc(Nc3ccc(F)cc3)c2)C(F)(F)F)cc1` (stereo not drawn) [Compound 11, 1,1,1-Trifluoro-2-(4-ethoxyphenyl)-3-(3-(4-fluorophenylamino)benzyloxy)propane], the mortality at 500 ppm is under 50% in the experiment with Myzus persicae; 50 to 79% in the experiment on Blattella germanica; under 50% in the experiment with Tetranychus urticae; 50 to 69% in the experiment with Spodoptera exigua; 50 to 79% in the experiment on Musca domestica [2]; under 50% in the experiment on Heliothis virescens. The mortality at 500 ppm with Nilaparvata lugens was 80 to 100%; with Diabrotica balteata, under 50%. For the same compound, the pest or weed control at 500 ppm in the experiment on Musca domestica [1] fell in the range of 80 to 100%.
Take `CCOc1ccc(C(COCc2cccc(Oc3ccccc3)c2)C(F)(F)F)cc1F` (stereo not drawn) [Compound 14, 1,1,1-Trifluoro-2-(3-fluoro-4-ethoxyphenyl)-3-(3-phenoxybenzyloxy)propane]: the mortality at 100 ppm in the experiment with Myzus persicae was 80 to 100%; with Blattella germanica it was 80 to 100%; in the experiment with Tetranychus urticae, under 50%; in the experiment with Spodoptera exigua, 70 to 100%; with Musca domestica [2] it was 80 to 100%; with Heliothis virescens it was 80 to 100%. The mortality at 100 ppm with Nilaparvata lugens and in the experiment on Diabrotica balteata was 80 to 100% in each case. Also, the pest or weed control at 100 ppm in the experiment on Musca domestica [1] lay in the range of 80 to 100%.
Regarding `CCOc1ccc(C(COCc2ccc(F)c(Cc3ccccc3)c2)C(F)(F)F)cc1` (stereo not drawn) [Compound 8], the mortality at 500 ppm with Myzus persicae is 80 to 100%; with Blattella germanica, 80 to 100%; in the experiment on Tetranychus urticae, under 50%; in the experiment with Spodoptera exigua, 70 to 100%; with Musca domestica [2] it was 80 to 100%; in the experiment with Heliothis virescens, 80 to 100%. The mortality at 500 ppm in the experiment with Nilaparvata lugens and in the experiment on Diabrotica balteata was 80 to 100% throughout. Further, in the experiment with Musca domestica [1], the pest or weed control at 500 ppm lay within 80 to 100%.
In the case of `CCOc1ccc([C@H](CO[C@H](C)c2cccc(Oc3ccccc3)c2)C(F)(F)F)cc1` (racemic) [Compound 256, (2RS)-1,1,1-trifluoro-2-(4-ethoxyphenyl)-3-[(1RS)-1-(3-phenoxyphenyl)ethoxy]propane], the mortality at 500 ppm in the experiment on Myzus persicae was 80 to 100%; in the experiment on Blattella germanica, under 50%; in the experiment with Tetranychus urticae it was under 50%; in the experiment on Spodoptera exigua it was under 50%; with Musca domestica [2], 80 to 100%; with Heliothis virescens it was 80 to 100%. The mortality at 500 ppm was 80 to 100% in the experiment on Nilaparvata lugens and under 50% in the experiment on Diabrotica balteata. In addition, the pest or weed control at 500 ppm with Musca domestica [1] lay in the range of 50 to 79%.
As for `OC(COCc1cccc(Oc2ccccc2)n1)(c1ccc(OC(F)(F)F)cc1)C(F)(F)F` (stereo not drawn) [Compound 136, 1,1,1-Trifluoro-2-(4-trifluoromethoxyphenyl)-3-(6-phenoxy-2-pyridylmethyloxy)propan-2-ol], the mortality at 500 ppm in the experiment with Myzus persicae was under 50%; in the experiment on Blattella germanica it was under 50%; in the experiment with Tetranychus urticae, under 50%; in the experiment with Spodoptera exigua it was under 50%; with Musca domestica [2], 80 to 100%; in the experiment on Heliothis virescens, 50 to 79%. The mortality at 500 ppm is under 50% with Nilaparvata lugens and 80 to 100% in the experiment with Diabrotica balteata. For the same compound, the pest or weed control at 500 ppm with Musca domestica [1] was 80 to 100%.
For `CCOc1c(F)cc(C(COCc2cccc(Oc3ccccc3)c2)C(F)(F)F)cc1F` (racemic) [Compound 163, (RS)-1,1,1-trifluoro-2-(3,5-difluoro-4-ethoxyphenyl)-3-(3-phenoxybenzyloxy)propane], the mortality at 500 ppm in the experiment on Myzus persicae fell in the range of 80 to 100%; with Blattella germanica, 80 to 100%; in the experiment on Tetranychus urticae it was 80 to 100%; with Spodoptera exigua, 70 to 100%; in the experiment with Musca domestica [2], 80 to 100%; in the experiment with Heliothis virescens it was 80 to 100%. Moreover, the mortality at 500 ppm in the experiment on Nilaparvata lugens and with Diabrotica balteata was 80 to 100% in each case. In addition, the pest or weed control at 500 ppm in the experiment on Musca domestica [1] is 80 to 100%.
For the compound `COCc1ccc(C(COCc2cccc(Oc3ccccc3)c2)C(F)(F)F)cc1` (stereo not drawn) [Compound 24, 1,1,1-Trifluoro-2-(4-methoxymethylphenyl)-3-(3-phenoxybenzyloxy)propane], the mortality at 100 ppm in the experiment with Myzus persicae is 80 to 100%; in the experiment on Blattella germanica it was 80 to 100%; in the experiment on Tetranychus urticae it was under 50%; in the experiment with Spodoptera exigua, 70 to 100%; with Musca domestica [2], 80 to 100%; with Heliothis virescens, 50 to 79%. Further, the mortality at 100 ppm in the experiment with Nilaparvata lugens and in the experiment with Diabrotica balteata was 80 to 100% throughout. The pest or weed control at 100 ppm in the experiment with Musca domestica [1] is 80 to 100%.
Consider `Fc1ccc(COCC(c2ccc(OC(F)(F)F)cc2)C(F)(F)F)cc1Oc1ccccc1` (stereo not drawn) [Compound 25, 1,1,1-Trifluoro-2-(4-trifluoromethoxyphenyl)-3-(3-phenoxy-4-fluorobenzyloxy)propane], for which the mortality at 100 ppm in the experiment with Myzus persicae was in the range of 80 to 100%; with Blattella germanica, 80 to 100%; with Tetranychus urticae, 80 to 100%; in the experiment with Spodoptera exigua it was 70 to 100%; in the experiment with Musca domestica [2], 80 to 100%; in the experiment with Heliothis virescens, 80 to 100%. In addition, the mortality at 100 ppm in the experiment on Nilaparvata lugens and in the experiment with Diabrotica balteata was 80 to 100% throughout. In addition, in the experiment on Musca domestica [1], the pest or weed control at 100 ppm is 80 to 100%.
On to `FC(F)(F)Oc1ccc(C(Cl)(COCc2cccc(Oc3ccc(Cl)cc3)c2)C(F)(F)F)cc1` (stereo not drawn) [Compound 60, 1,1,1-Trifluoro-2-chloro-2-(4-trifluoromethoxyphenyl)-3-(3-(4-chlorophenoxy)benzyloxy)propane], for which the mortality at 100 ppm was 50 to 79% in the experiment with Myzus persicae; 80 to 100% with Blattella germanica; under 50% in the experiment with Tetranychus urticae; 70 to 100% in the experiment on Spodoptera exigua; under 50% in the experiment with Musca domestica [2]; 80 to 100% in the experiment on Heliothis virescens. Also, the figures for the mortality at 100 ppm in the experiment with Nilaparvata lugens and in the experiment on Diabrotica balteata were 80 to 100% and under 50%, respectively. Besides, the pest or weed control at 100 ppm in the experiment on Musca domestica [1] is under 50%.
On to `CCOc1c(F)cc(C(O)(COCc2cccc(Oc3ccccc3)c2)C(F)(F)F)cc1F` (racemic) [Compound 176, (RS)-1,1,1-trifluoro-2-(3,5-difluoro-4-ethoxyphenyl)-3-(3-phenoxybenzyloxy)propan-2-ol], for which the mortality at 500 ppm in the experiment with Myzus persicae is under 50%; with Blattella germanica, under 50%; with Tetranychus urticae, under 50%; in the experiment on Spodoptera exigua it was 70 to 100%; in the experiment with Musca domestica [2], under 50%; in the experiment with Heliothis virescens, 50 to 79%. Moreover, the mortality at 500 ppm is under 50% with Nilaparvata lugens and 80 to 100% in the experiment on Diabrotica balteata. Also, in the experiment with Musca domestica [1], the pest or weed control at 500 ppm is 80 to 100%.
As for `Fc1ccc(C(COCc2ccc(F)c(Oc3ccccc3)c2)C(F)(F)F)cc1` (stereo not drawn) [Compound 18, 1,1,1-Trifluoro-2-(4-fluorophenyl)-3-(3-phenoxy-4-fluorobenzyloxy)propane], the mortality at 250 ppm with Myzus persicae (250 ppm) lay in the range of 80 to 100%; in the experiment on Blattella germanica (250 ppm), 80 to 100%; in the experiment on Tetranychus urticae (250 ppm), 80 to 100%; in the experiment with Spodoptera exigua (250 ppm), 70 to 100%; in the experiment with Musca domestica [2] (250 ppm), 80 to 100%; with Heliothis virescens, 80 to 100%. For the same compound, the mortality at 250 ppm in the experiment on Nilaparvata lugens (250 ppm) and with Diabrotica balteata (250 ppm) was 80 to 100% in each case. In addition, in the experiment on Musca domestica [1] (250 ppm), the pest or weed control at 250 ppm was 80 to 100%.

Usually mortality stands for the share of the test organisms that died.
